Consider eleven molecules from patent US5589477A, “Pyrimidine derivatives and drugs” (Nippon Shinyaku Company, Limited, priority 1990, dated 1996).

Counter-ions that a name gives are not always drawn.

For one series, the target named is T1, muscarinic M1 receptors (Rattus norvegicus, UniProt P08482).
T1 construct: receptor membrane preparations from rat brain; from tissue; host or cells: rat brain membranes
T1 sequence (P08482 1-460): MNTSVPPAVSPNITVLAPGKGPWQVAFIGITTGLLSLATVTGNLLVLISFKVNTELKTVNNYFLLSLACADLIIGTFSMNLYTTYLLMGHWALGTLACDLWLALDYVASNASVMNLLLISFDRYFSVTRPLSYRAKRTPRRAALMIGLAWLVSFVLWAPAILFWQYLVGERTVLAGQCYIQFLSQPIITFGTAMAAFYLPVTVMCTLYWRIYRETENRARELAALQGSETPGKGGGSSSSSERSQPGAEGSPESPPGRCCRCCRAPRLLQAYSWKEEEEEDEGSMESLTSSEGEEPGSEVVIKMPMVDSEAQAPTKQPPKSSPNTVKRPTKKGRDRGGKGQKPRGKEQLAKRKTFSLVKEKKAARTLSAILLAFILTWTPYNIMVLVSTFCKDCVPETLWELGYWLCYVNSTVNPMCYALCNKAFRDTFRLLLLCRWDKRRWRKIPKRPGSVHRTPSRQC
In words: Binding assay for muscarinic M1 receptors ([^3 H]pirenzepine displacement, rat brain membranes). The conditions noted are these: 1 nM [^3 H]pirenzepine, pH 7.4, 25° C., 60 minutes. Here is the method: (3) Effect on muscarinic M1 receptors
Binding assay for muscarinic M1 receptors was carried out according to the method of Watson and Yamamura [Life Sci. 3001-3011(1983)]. Namely, the receptor membrane preparations from rat brain were incubated with 1 nM [^3 H]pirenzepine in 10 mM Na/K phosphate buffer solution (pH 7.4) at 25° C. for 60 minutes. 1 μM of atropine was used as a displacer.
Broadly, the IC50 is the concentration that gives 50% inhibition. Lower therefore signals inhibition by little substance. Molecule `Cc1cc(O[C@H]2CN3CCC2CC3)nc(-c2ccc(Cl)cc2)n1` [Example 44, (R)-(-)-4-(1-azabicyclo[2,2,2]octo-3-yloxy)-2-(4-chlorophenyl) 6-methylpyrimidine maleate] registered an IC50 of 240 nM.

As to `COc1ccc(-c2nc(O[C@H]3CN4CCC3CC4)cc(C(C)(C)C)n2)cc1` [Example 60, (R)-(-)-4-(1-azabicyclo[2,2,2]octo-3-yloxy)-6-tert-butyl-2-(4-methoxyphenyl)pyrimidine maleate], the half-inhibitory concentration (IC50) stood at 3100 nM.

As for `Cc1cc(O[C@H]2CN3CCC2CC3)nc(-c2ccc(O)cc2)n1` [Example 58, (R)-(-)-4-(1-azabicyclo[2,2,2]octo-3-yloxy)-2-(4-hydroxyphenyl) 6-methylpyrimidine maleate], the IC50 is 810 nM. Compared with the last molecule, the IC50 is about 3.8-fold lower.

The molecule `Cc1cc(O[C@H]2CN3CCC2CC3)nc(-c2ccc(F)cc2)n1` [Example 27, (R)-(-)-4-(1-azabicyclo[2,2,2]octo-3-yloxy)-2-(4-fluorophenyl) 6-methylpyrimidine maleate] displayed a half-inhibitory concentration (IC50) of 170 nM. Compared with the last molecule, the IC50 is about 4.8-fold lower.

Turning to `Fc1ccc(-c2nc(O[C@H]3CN4CCC3CC4)cc(C(F)(F)F)n2)cc1` [Example 63, (R)-(-)-4-(1-azabicyclo[2,2,2]octo-3-yloxy)-2-(4-fluorophenyl) 6-trifluoromethylpyrimidine maleate], the IC50 was determined as 600 nM.

The next series relates to mice. In words: Acute toxicity (mice, p.o.). It counts as in vivo. The conditions noted are these: 1000 mg/kg p.o., male mice, 72 hours. As to the method:
Male mice, 6 weeks of age (4 mice/group) were deprived of foods overnight. Test drugs suspended in 0.5% methyl cellulose solution were administered orally to the mice. Whether the animals were dead or not was observed 72 hours after the treatment of the drugs.
On to `COc1ccc(-c2nc(C)cc(OCCN3CCN(c4ccccc4)CC3)n2)cc1` [Example 21, 2-(4-methoxyphenyl)-4-methyl-6-[2-(4-phenylpiperazino)ethoxy]pyrimidine], for which the “Lethality (Number of dead animals/Number of animals used)” value is on record as 0/4.

Take `Cc1cc(O[C@H]2CN3CCC2CC3)nc(-c2ccc(Cl)cc2)n1` [Example 44, (R)-(-)-4-(1-azabicyclo[2,2,2]octo-3-yloxy)-2-(4-chlorophenyl) 6-methylpyrimidine maleate]: the “Lethality (Number of dead animals/Number of animals used)” value is recorded as 0/4.

As to `Cc1cc(O[C@H]2CN3CCC2CC3)nc(-c2ccc(O)cc2)n1` [Example 58, (R)-(-)-4-(1-azabicyclo[2,2,2]octo-3-yloxy)-2-(4-hydroxyphenyl) 6-methylpyrimidine maleate], the “Lethality (Number of dead animals/Number of animals used)” value was 0/4.

Consider `Cc1cc(OCCN2CCN(C(c3ccccc3)c3ccccc3)CC2)nc(-c2ccccc2)n1` [Example 13, 4-[2-(4-diphenylmethylpiperazino)ethoxy]-6-methyl-2-phenylpyrimidine], for which the “Lethality (Number of dead animals/Number of animals used)” value is given as 0/4.

`Cc1cc(N2CCN(C(c3ccccc3)c3ccccc3)CC2)nc(-c2ccccc2)n1` [Example 35, 4-(4-diphenylmethylpiperazino)-6-methyl-2-phenylpyrimidine]: the “Lethality (Number of dead animals/Number of animals used)” value is reported as 0/4.

Take `COc1ccc(-c2nc(C)cc(OCCN3CCN(C(c4ccccc4)c4ccccc4)CC3)n2)cc1` [Example 3, 4-[2-(4-diphenylmethylpiperazino)ethoxy]-2-(4-methoxyphenyl)-6-methylpyrimidine]: the “Lethality (Number of dead animals/Number of animals used)” value is recorded as 0/4.

Turning to `COc1ccc(-c2nc(C)cc(N3CCN(C(c4ccccc4)c4ccccc4)CC3)n2)cc1` [Example 4, 4-(4-diphenylmethylpiperazino)-2-(4-methoxyphenyl)-6-methylpyrimidine], the “Lethality (Number of dead animals/Number of animals used)” value was 0/4.

Consider `Cc1cc(OCCN2CCN(c3ccccc3)CC2)nc(-c2ccccc2)n1.O=C(O)/C=C\C(=O)O` [Example 11, 4-Methyl-2-phenyl-6-[2-(4-phenylpiperazino)ethoxy] pyrimidine maleate], for which the “Lethality (Number of dead animals/Number of animals used)” value is on record as 0/4.
